Values of other authors as cited in patent US20060122261A1, “[METHOD OF PREPARING LABDANE DITERPENE COMPOSITION, PREFERABLY ISOFORSKOLIN AND DEACETYLFORSKOLIN FROM FORSKOLIN EXTRACT AND THEIR USE FOR PROMOTING LEAN BODY MASS AND OTHER APPLICATIONS]” (priority 2003, published 2006).

Key:
[1] = Rupp, de Souza, Dohadwalla 1985
[2] = test system: adenylate cyclase; conditions: Rupp, de Souza, Dohadwalla 1985

SMILES | Effectiveness as hypotensive, anti-hypertensive, positive inotropic relative to Forskolin [1] | Effectiveness as adenylate cyclase activator relative to Forskolin [2]
C=C[C@@]1(C)CC(=O)[C@]2(O)[C@@]3(C)[C@@H](O)CCC(C)(C)[C@@H]3[C@H](O)[C@H](O)[C@@]2(C)O1 [7-deacetylforskolin] | equally effective as Forskolin | equally effective as Forskolin
C=C[C@@]1(C)CC(=O)[C@@]2(O)[C@](C)(O1)[C@@H](O)[C@@H](OC(C)=O)C1C(C)(C)CC[C@H](O)[C@@]12C (stereo partly shown) [6-acetyl-7-deacetylforskolin] | equally effective as Forskolin | equally effective as Forskolin
